Results as given in PubChem BioAssay (NCI).
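In this assay, cells in 96-well plates receive the compound at five concentrations for 48 hours. Endpoints are linearly interpolated between the surrounding concentrations. TGI is the concentration that stops growth completely.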

Columns and labels:
Assay in all cases: NCI-60 cell line screen, 48 h
[1] = system: NCI-H23 lung
[2] = system: OVCAR-4 ovarian
[3] = system: OVCAR-8 ovarian
[4] = system: A498 renal
[5] = system: EKVX NSCLC
[6] = system: HOP-62 NSCLC
[7] = system: MCF7 breast
[8] = system: HCC-2998 colon
[9] = system: HL-60(TB) leukemia
[10] = system: NCI-H460 lung
[11] = system: CAKI-1 renal
[12] = system: SF-295 CNS
[13] = system: RPMI-8226 leukemia
[14] = system: HCT-15 colon
[15] = system: SN12C renal
[16] = system: KM12 colon
[17] = system: NCI/ADR-RES ovarian
[18] = system: ACHN renal
[19] = system: M14 melanoma
[20] = system: SNB-19 CNS
[21] = system: TK-10 renal
[22] = system: OVCAR-5 ovarian
[23] = system: OVCAR-3 ovarian
[24] = system: UO-31 renal
[25] = system: SW-620 colon
[26] = system: MOLT-4 leukemia
[27] = system: HOP-92 NSCLC
[28] = system: MDA-MB-435
[29] = system: DU-145 prostate
[30] = system: CCRF-CEM leukemia
[31] = system: SNB-75 CNS
[32] = system: SK-MEL-5 melanoma
[33] = system: SK-MEL-2 melanoma
[34] = system: UACC-62 melanoma
[35] = system: SR leukemia
[36] = system: LOX IMVI melanoma
[37] = system: T-47D breast
[38] = system: U251 CNS
[39] = system: SK-MEL-28 melanoma
[40] = system: PC-3 prostate
[41] = system: MDA-N
[42] = system: HCT-116 colon
[43] = system: K-562 leukemia
[44] = system: COLO 205 colon
[45] = system: A549 NSCLC
[46] = system: BT-549 breast
[47] = system: 786-0 renal
[48] = system: IGROV1 ovarian
[49] = system: RXF 393 renal
[50] = system: UACC-257 melanoma
[51] = system: SK-OV-3 ovarian
[52] = system: MDA-MB-231 breast
[53] = system: NCI-H226 lung
[54] = system: SF-539 CNS
[55] = system: HT29 colon
[56] = system: NCI-H522 lung
[57] = system: HS 578T breast
[58] = system: SF-268 CNS
[59] = system: MALME-3M melanoma

Measured: TGI

COc1ccc2nc3n(c2c1)C(c1c(F)cccc1Cl)SC3 (stereo not given)
not listed: [52] | [53] | [54] | [55] | [56] | [57] | [58] | [59]
> 100 µM: all other assays above

O=c1[nH]c2ccccc2c(O)c1/C=N/C(=S)NCCc1ccccc1
not listed: [4] | [13] | [30] | [35] | [43] | [49] | [56] | [57] | [58] | [59]
> 100 µM: all other assays above

Nc1ncnc2c1ncn2C1OC(CO)C2OC21 (stereo not given)
> 10 µM: [10] | [14] | [17] | [19] | [23] | [28] | [59] | [41] | [47]
not listed: [46]
> 100 µM: all other assays above

COC(=O)C1(C(=O)OC)N=C(C)OC1c1ccoc1 (stereo not given)
not listed: [48] | [52] | [54] | [55] | [56] | [57] | [58] | [59]
> 100 µM: all other assays above

N#CC(C#N)N=Nc1ccc(-c2nc3ccccc3s2)cc1
8.21 µM: [37]
4.64 µM: [27]
20.4 µM: [36] | [55]
22.8 µM: [5]
8.72 µM: [1]
32.1 µM: [19]
3.4 µM: [13]
23.8 µM: [4]
13.6 µM: [42]
54.8 µM: [31]
15.8 µM: [49]
3.68 µM: [26]
22 µM: [47]
50.5 µM: [22]
63.1 µM: [41]
7.8 µM: [56]
9.37 µM: [32]
10.8 µM: [15]
43.8 µM: [3]
10.3 µM: [35]
39.9 µM: [28]
25.8 µM: [54]
14 µM: [44]
11.2 µM: [50]
21.8 µM: [24]
20.7 µM: [11]
13.5 µM: [14]
7.99 µM: [59]
19.2 µM: [46]
15.2 µM: [17] | [18]
14.9 µM: [7]
19.6 µM: [29]
16.7 µM: [33]
11.3 µM: [21]
10.1 µM: [40]
35.9 µM: [39]
22.7 µM: [25]
22.2 µM: [48]
78.6 µM: [2]
